From ChEMBL document CHEMBL1201862, “PubChem BioAssay data set” (2004)
“And” between values parts separate entries of the source, which are not always exact repeats. Identical values can stand only once.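 Growth conditions: 96-well plates. Treatment: test compound, 48 hours, 5 concentrations. Analysis: linear interpolation between bracketing concentrations; unreached endpoints set to highest concentration. Abbreviation: GI50, concentration required for 50% inhibition of growth.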 The source made the active and inactive calls. Cut-off read from the data, not from the text of the source: active = GI50 up to about 1.1 µM and inactive = higher.

How the values were obtained:
Experiment in all cases: growth of human tumour cells (NCI), 48 h
ACHN = test system: ACHN
SF-268 = test system: SF-268
OVCAR-5 = test system: OVCAR-5
SN12C = test system: SN12C
NCI-H460 = test system: NCI-H460
SF-539 = test system: SF-539
SK-MEL-2 = test system: SK-MEL-2
HT-29 = test system: HT-29
DU-145 = test system: DU-145
MOLT-4 = test system: MOLT-4
KM12 = test system: KM12
UO-31 = test system: UO-31
MDA-N = test system: MDA-N
MDA-MB-231 = test system: MDA-MB-231
HOP-92 = test system: HOP-92
786-0 = test system: 786-0
SW-620 = test system: SW-620
NCI-H23 = test system: NCI-H23
Hs-578T = test system: Hs-578T
MCF7 = test system: MCF7

SMILES	GI50 (ACHN)	GI50 (SF-268)	GI50 (OVCAR-5)	GI50 (SN12C)	GI50 (NCI-H460)	GI50 (SF-539)	GI50 (SK-MEL-2)	GI50 (HT-29)	GI50 (DU-145)	GI50 (MOLT-4)	GI50 (KM12)	GI50 (UO-31)	GI50 (MDA-N)	GI50 (MDA-MB-231)	GI50 (HOP-92)	GI50 (786-0)	GI50 (SW-620)	GI50 (NCI-H23)	GI50 (Hs-578T)	GI50 (MCF7)
c1nc(NCCc2c[nH]cn2)c2nc[nH]c2n1	> 100 µM (inactive)	> 100 µM (inactive)	> 100 µM (inactive)	> 100 µM (inactive)	> 100 µM (inactive)	> 100 µM (inactive)	> 100 µM (inactive)	> 100 µM (inactive)	> 100 µM (inactive)	> 100 µM (inactive)	> 100 µM (inactive)	> 100 µM (inactive)	> 100 µM (inactive)	> 100 µM (inactive)	> 100 µM (inactive)	> 100 µM (inactive)	> 100 µM (inactive)	> 100 µM (inactive)	> 100 µM (inactive)	–
CCCCc1ccc(Nc2nc(S)c3[nH]cnc3n2)cc1	23.1 µM (inactive)	50.7 µM (inactive)	17.2 µM (inactive)	22.8 µM (inactive)	33.3 µM (inactive)	20.3 µM (inactive)	17 µM (inactive)	10.3 µM (inactive)	35.5 µM (inactive)	1.43 µM (inactive)	11.4 µM (inactive)	28.1 µM (inactive)	–	28.9 µM (inactive)	32.4 µM (inactive)	33.2 µM (inactive)	15.4 µM (inactive)	18.7 µM (inactive)	21.5 µM (inactive)	> 10 µM (inactive)
Cc1cc(NS(=O)(=O)c2ccc(NC(NC(=O)OC(C)C)(C(F)(F)F)C(F)(F)F)cc2)nc(C)n1	> 100 µM (inactive)	> 100 µM (inactive)	> 100 µM (inactive)	> 100 µM (inactive)	> 100 µM (inactive)	> 100 µM (inactive)	–	> 100 µM (inactive)	> 100 µM (inactive)	> 100 µM (inactive)	> 100 µM (inactive)	–	> 100 µM (inactive)	> 100 µM (inactive)	> 100 µM (inactive)	> 100 µM (inactive)	> 100 µM (inactive)	> 100 µM (inactive)	> 100 µM (inactive)	> 100 µM (inactive)
O=C(O)CCCc1ccc2c(c1)CC1(C2)Cc2cc3c(cc2C1)CCCC3	17 µM (inactive)	–	19.9 µM (inactive)	22.1 µM (inactive)	–	2.06 µM (inactive)	17.5 µM (inactive)	16.3 µM (inactive)	–	1.52 µM (inactive)	19 µM (inactive)	19.4 µM (inactive)	19.1 µM (inactive)	3.24 µM (inactive)	23.7 µM (inactive)	28.6 µM (inactive)	–	23.6 µM (inactive)	> 100 µM (inactive)	39.4 µM (inactive)
CS(=O)(=O)c1nc(-c2cc3c(c(S(C)(=O)=O)n2)CCCC3)cc2c1CCCC2	> 100 µM (inactive)	11.8 µM (inactive)	> 100 µM (inactive)	> 100 µM (inactive)	–	> 65.2 µM (inactive)	> 54.3 µM (inactive)	> 100 µM (inactive)	> 100 µM (inactive)	> 100 µM (inactive)	> 100 µM (inactive)	0.048 µM (active)	> 100 µM (inactive)	56.5 µM (inactive)	–	41 µM (inactive)	> 100 µM (inactive)	> 63 µM (inactive)	12.4 µM (inactive)	> 100 µM (inactive)
CCOC(=O)c1ccc(-c2ccc(Cl)cc2)[nH]1	> 10 µM (inactive)	> 10 µM (inactive)	> 10 µM (inactive)	> 10 µM (inactive)	> 10 µM (inactive)	> 10 µM (inactive)	> 10 µM (inactive)	> 10 µM (inactive)	> 10 µM (inactive)	> 10 µM (inactive)	> 10 µM (inactive)	> 10 µM (inactive)	5.45 µM (inactive)	–	> 10 µM (inactive)	> 10 µM (inactive)	–	> 10 µM (inactive)	> 10 µM (inactive)	–
COc1cc(/C=C2\N=C(c3ccccc3)N(c3ccc4c(c3)Sc3cc(N5C(=O)/C(=C/c6cc(OC)c(OC)c(OC)c6)N=C5c5ccccc5)ccc3N4)C2=O)cc(OC)c1OC	19 µM (inactive)	18.4 µM (inactive)	20.6 µM (inactive)	25.9 µM (inactive)	31.3 µM (inactive)	–	18.5 µM (inactive)	> 100 µM (inactive)	54.3 µM (inactive)	37.2 µM (inactive)	> 100 µM (inactive)	31.3 µM (inactive)	19.8 µM (inactive)	25.7 µM (inactive)	18.8 µM (inactive)	20.9 µM (inactive)	42.7 µM (inactive)	19.3 µM (inactive)	21.8 µM (inactive)	21 µM (inactive)
COC(=O)c1ccccc1/C=C1/Cc2ccccc2C1=O	39.2 µM (inactive)	> 100 µM (inactive)	33.3 µM (inactive)	17.4 µM (inactive)	> 100 µM (inactive)	> 100 µM (inactive)	–	37.9 µM (inactive)	> 100 µM (inactive)	24.4 µM (inactive)	25.2 µM (inactive)	50.6 µM (inactive)	55.8 µM (inactive)	44.7 µM (inactive)	61.1 µM (inactive)	> 10 µM (inactive)	28.3 µM (inactive)	68.4 µM (inactive)	30.9 µM (inactive)	11.5 µM (inactive)
CCOC(=O)c1cc(C2(OC)CCN(Cc3ccccc3)C2=O)c(-c2cc(C)no2)[nH]1 (configuration not stated)	> 100 µM (inactive)	> 100 µM (inactive)	> 100 µM (inactive)	–	82.4 µM (inactive)	–	> 100 µM (inactive)	75.7 µM (inactive)	> 100 µM (inactive)	> 100 µM (inactive)	> 100 µM (inactive)	> 100 µM (inactive)	> 100 µM (inactive)	> 100 µM (inactive)	90.6 µM (inactive)	> 100 µM (inactive)	> 100 µM (inactive)	> 100 µM (inactive)	> 100 µM (inactive)	94.6 µM (inactive)
CCOC(=O)c1c(-c2ccccc2)nc2ccccc2c1O	> 100 µM (inactive)	> 100 µM (inactive)	> 100 µM (inactive)	–	> 100 µM (inactive)	–	–	> 100 µM (inactive)	> 100 µM (inactive)	> 100 µM (inactive)	> 100 µM (inactive)	> 100 µM (inactive)	> 100 µM (inactive)	–	> 100 µM (inactive)	> 100 µM (inactive)	> 100 µM (inactive)	> 100 µM (inactive)	> 100 µM (inactive)	> 100 µM (inactive)
COc1ccc(-c2c(C#N)c(N)n(C3OC(CO)C(O)C(O)C3O)c(=S)c2C#N)cc1 (configuration not stated)	87.9 µM (inactive) and 97.3 µM (inactive)	> 100 µM (inactive)	> 100 µM (inactive)	> 100 µM (inactive)	97.1 µM (inactive)	> 100 µM (inactive)	55.8 µM (inactive) and 30.4 µM (inactive)	> 100 µM (inactive)	> 100 µM (inactive)	> 100 µM (inactive) and 68.2 µM (inactive)	> 100 µM (inactive)	82.2 µM (inactive)	> 100 µM (inactive)	> 100 µM (inactive)	20.2 µM (inactive)	> 100 µM (inactive)	> 100 µM (inactive) and 73.1 µM (inactive)	> 100 µM (inactive)	21.7 µM (inactive)	–
O=[N+]([O-])c1cccc(/N=N/c2c(O)ccc3ccccc23)c1	–	51.4 µM (inactive)	> 100 µM (inactive)	> 100 µM (inactive)	–	–	50.4 µM (inactive)	> 100 µM (inactive)	> 100 µM (inactive)	85.3 µM (inactive)	42.4 µM (inactive)	> 100 µM (inactive)	87.3 µM (inactive)	56.4 µM (inactive)	48.1 µM (inactive)	69.7 µM (inactive)	57 µM (inactive)	70.8 µM (inactive)	49.5 µM (inactive)	–
Cc1ccc(C(=O)Nc2ccc(S(=O)(=O)O)c3cc(S(=O)(=O)O)cc(S(=O)(=O)O)c23)cc1NC(=O)c1cccc(N)c1	> 100 µM (inactive)	> 100 µM (inactive)	> 100 µM (inactive)	> 100 µM (inactive)	> 100 µM (inactive)	> 100 µM (inactive)	73.8 µM (inactive)	> 100 µM (inactive)	–	> 100 µM (inactive)	> 100 µM (inactive)	> 100 µM (inactive)	–	> 100 µM (inactive)	–	> 100 µM (inactive)	> 100 µM (inactive)	> 100 µM (inactive)	> 100 µM (inactive)	> 100 µM (inactive)
Cc1c(O)c(OC2OC(CO)C(O)C(O)C2O)cc2c1CC[C@@H]1C2(C)C(=O)C[C@]2(C)[C@@H]([C@@](C)(O)C(O)CCC(C)(C)O)[C@H](O)C[C@@]12C (some centres not stated)	> 100 µM (inactive)	> 100 µM (inactive)	> 100 µM (inactive)	> 100 µM (inactive)	> 100 µM (inactive)	> 100 µM (inactive)	> 100 µM (inactive)	> 100 µM (inactive)	> 100 µM (inactive)	> 100 µM (inactive)	> 100 µM (inactive)	> 100 µM (inactive)	> 100 µM (inactive)	> 100 µM (inactive)	> 100 µM (inactive)	> 100 µM (inactive)	> 100 µM (inactive)	> 100 µM (inactive)	–	> 100 µM (inactive)
CCOC(=O)c1nc2ccccc2nc1NCc1ccc(OC)cc1	> 100 µM (inactive)	> 100 µM (inactive)	> 100 µM (inactive)	–	82.8 µM (inactive)	> 100 µM (inactive)	–	96.4 µM (inactive)	> 100 µM (inactive)	> 100 µM (inactive)	44.6 µM (inactive)	> 100 µM (inactive)	–	99.8 µM (inactive)	> 100 µM (inactive)	> 100 µM (inactive)	> 100 µM (inactive)	> 100 µM (inactive)	40.5 µM (inactive)	47.4 µM (inactive)
